What was measured:
hERG [1] = target: hERG (Homo sapiens, UniProt Q12809)
[2] = human Thorough-QT study; ref Gintant, 2011; cited from earlier work
hERG [3] = conditions: read-out: hERG IC50; ref FDA pharmacology review (022068s000_PharmR_P1.pdf); cited from earlier work

hERG, sequence (Q12809 whole entry): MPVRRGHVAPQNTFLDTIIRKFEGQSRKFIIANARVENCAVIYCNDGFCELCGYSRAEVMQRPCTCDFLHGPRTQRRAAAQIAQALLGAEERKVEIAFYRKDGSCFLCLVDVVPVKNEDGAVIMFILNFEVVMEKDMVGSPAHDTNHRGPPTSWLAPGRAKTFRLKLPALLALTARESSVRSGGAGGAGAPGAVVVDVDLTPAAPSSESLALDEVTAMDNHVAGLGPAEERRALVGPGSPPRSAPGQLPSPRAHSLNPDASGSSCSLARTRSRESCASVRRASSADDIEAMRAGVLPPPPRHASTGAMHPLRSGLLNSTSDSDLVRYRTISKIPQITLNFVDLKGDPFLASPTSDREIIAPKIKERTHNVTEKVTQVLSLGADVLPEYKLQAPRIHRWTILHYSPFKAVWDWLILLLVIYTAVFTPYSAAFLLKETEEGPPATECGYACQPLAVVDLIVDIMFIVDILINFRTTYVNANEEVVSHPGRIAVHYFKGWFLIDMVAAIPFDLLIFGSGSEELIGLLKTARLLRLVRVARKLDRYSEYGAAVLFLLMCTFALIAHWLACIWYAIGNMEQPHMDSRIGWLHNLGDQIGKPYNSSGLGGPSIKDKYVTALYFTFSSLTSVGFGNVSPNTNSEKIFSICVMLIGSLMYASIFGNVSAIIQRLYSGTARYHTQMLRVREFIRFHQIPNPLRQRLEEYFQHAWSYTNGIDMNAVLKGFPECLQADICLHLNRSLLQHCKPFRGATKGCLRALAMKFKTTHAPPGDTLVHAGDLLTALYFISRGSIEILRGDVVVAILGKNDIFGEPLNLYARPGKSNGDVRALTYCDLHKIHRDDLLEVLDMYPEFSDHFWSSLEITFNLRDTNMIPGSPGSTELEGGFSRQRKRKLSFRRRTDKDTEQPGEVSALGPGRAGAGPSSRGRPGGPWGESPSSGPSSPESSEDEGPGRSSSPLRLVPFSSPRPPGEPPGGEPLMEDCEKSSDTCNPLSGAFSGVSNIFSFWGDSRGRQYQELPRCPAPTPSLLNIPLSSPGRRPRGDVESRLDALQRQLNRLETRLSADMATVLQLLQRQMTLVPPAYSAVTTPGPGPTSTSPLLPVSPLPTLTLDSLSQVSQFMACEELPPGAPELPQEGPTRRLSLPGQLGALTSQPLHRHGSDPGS

| SMILES | Hill Log-logistic α (hERG [1]) | QTc prolongation observed in the TQT study [2] [ms] | IC50 (hERG [3]) [nM] |
| --- | --- | --- | --- |
| O=c1[nH]c2ccccc2n1C1CCN(CCCC(c2ccc(F)cc2)c2ccc(F)cc2)CC1 [Pimozide] | 1.586 | – | – |
| Cc1cn(-c2cc(NC(=O)c3ccc(C)c(Nc4nccc(-c5cccnc5)n4)c3)cc(C(F)(F)F)c2)cn1 [Nilotinib] | – | 15.8 | […] |
| COc1cc2nc(N(C)CCCNC(=O)C3CCCO3)nc(N)c2cc1OC (centres unmarked) [Alfuzosin] | – | 7.7 | – |
| O=C(CCCN1CCC(O)(c2ccc(Cl)cc2)CC1)c1ccc(F)cc1 [Haloperidol] | 1.469 | – | – |
